In US20090111854A1, “1,2,4-TRIAZOLE ARYL N-OXIDES DERIVATIVES AS MODULATORS OF MGLUR5” (AstraZeneca AB, priority 2007, published 2009):

Experiments:
[1] = Determination of brain to plasma ratio in rat; assay type: in vivo, female Sprague Dawley rats; conditions: female, Sprague Dawley, brain and plasma, read-out: Brain/Plasma Ratio of compound in Rat
Procedure: Brain to plasma ratios are estimated in female Sprague Dawley rats. The compound is dissolved in water or another appropriate vehicle. For determination of brain to plasma ratio the compound is administrated as a subcutaneous, or an intravenous bolus injection, or an intravenous infusion, or an oral administration. At a predetermined time point after the administration a blood sample is taken with cardiac puncture. The rat is terminated by cutting the heart open, and the brain is immediately retained. The blood samples are collected in heparinized tubes and centrifuged within 30 minutes, in order to separate the plasma from the blood cells. The plasma is transferred to 96-well plates and stored at −20° C. until analysis. The brains are divided in half, and each half is placed in a pre-tarred tube and stored at −20° C. until analysis. Prior to the analysis, the brain samples are thawed and 3 mL/g brain tissue of distilled water is added to the tubes. The brain samples are sonicated in an ice bath until the samples are homogenized. Both brain and plasma samples are precipitated with acetonitrile. After centrifugation, the supernatant is diluted with 0.2% formic acid. Analysis is performed on a short reversed-phase HPLC column with rapid gradient elution and MSMS detection using a triple quadrupole instrument with electrospray ionisation and Selected Reaction Monitoring (SRM) acquisition. Liquid-liquid extraction may be used as an alternative sample clean-up. The samples are extracted, by shaking, to an organic solvent after addition of a suitable buffer. An aliquot of the organic layer is transferred to a new vial and evaporated to dryness under a stream of nitrogen. After reconstitution of the residuals the samples are ready for injection onto the HPLC column.

human mGluR5d = biological target: T1, human mGluR5d (Homo sapiens, UniProt P41594); experiment: FLIPR assay, functional assessment of mGluR5 antagonism (intracellular calcium mobilization); assay type: cell-based; conditions: cells expressing human mGluR5d; read-out: FLIPR hmGluR5d
T1 construct: expressed in transfected cells; The culture medium contains hygromycin B and Zeocin as selection agents; The separate IP3 assay names 'GHEK stably expressing the human mGluR5d'
T1 sequence (P41594 21-942 isoform P41594-3 limits assumed): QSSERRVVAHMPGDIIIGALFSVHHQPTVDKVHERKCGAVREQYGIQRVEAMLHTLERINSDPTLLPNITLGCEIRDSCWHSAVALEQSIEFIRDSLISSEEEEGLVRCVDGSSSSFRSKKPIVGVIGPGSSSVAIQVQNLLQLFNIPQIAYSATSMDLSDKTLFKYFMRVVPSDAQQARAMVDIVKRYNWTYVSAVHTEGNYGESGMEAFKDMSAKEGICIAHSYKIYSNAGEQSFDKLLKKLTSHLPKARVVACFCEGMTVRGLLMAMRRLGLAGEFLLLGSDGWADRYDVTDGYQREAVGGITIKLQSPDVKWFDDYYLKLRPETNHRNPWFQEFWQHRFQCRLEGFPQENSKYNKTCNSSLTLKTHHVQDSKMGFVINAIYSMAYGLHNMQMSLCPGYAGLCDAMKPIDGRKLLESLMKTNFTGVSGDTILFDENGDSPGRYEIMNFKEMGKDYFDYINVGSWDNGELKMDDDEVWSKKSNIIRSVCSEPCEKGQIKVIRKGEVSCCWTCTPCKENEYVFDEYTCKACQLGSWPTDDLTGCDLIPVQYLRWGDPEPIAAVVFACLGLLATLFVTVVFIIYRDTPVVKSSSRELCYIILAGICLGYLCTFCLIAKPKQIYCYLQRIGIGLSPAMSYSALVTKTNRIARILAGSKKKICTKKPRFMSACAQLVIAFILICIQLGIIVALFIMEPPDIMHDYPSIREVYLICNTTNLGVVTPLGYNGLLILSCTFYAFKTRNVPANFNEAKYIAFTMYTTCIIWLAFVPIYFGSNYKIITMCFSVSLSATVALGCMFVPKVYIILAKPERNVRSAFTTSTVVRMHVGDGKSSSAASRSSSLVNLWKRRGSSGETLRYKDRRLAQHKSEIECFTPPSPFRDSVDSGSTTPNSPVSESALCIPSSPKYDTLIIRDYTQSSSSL
From the text: Functional Assessment of mGluR5 Antagonism it Cell Lines Expressing mGluR5D
The properties of the compounds of the invention can be analyzed using standard assays for pharmacological activity. Examples of glutamate receptor assays are well known in the art as described in for example Aramori et al., Neuron 8:757 (1992), Tanabe et al., Neuron 8:169 (1992), Miller et al., J. Neuroscience 15: 6103 (1995), Balazs, et al., J. Neurochemistry 69:151 (1997). The methodology described in these publications is to incorporated herein by reference. Conveniently, the compounds of the invention can be studied by means of an assay (FLIPR) that measures the mobilization of intracellular calcium, [Ca^2+]i in cells expressing mGluR5 or another assay (IP3) that measures inositol phosphate turnover.
Cells expressing human mGluR5d as described in WO97/05252 cultured in a mixture of high glucose DMEM with Glutamax (31966-021) (500 mL), 10% dialyzed fetal bovine serum (Hyclone #SH30079.03)(56 mL), 200 μg/mL Hygromycin B (Invitrogen 45-0430, 50 mg/mL) (2.2 mL), 200 μg/mL Zeocin (Invitrogen #R250-01; 100 mg/mL)(1.1 mL) are seeded at a density of 100,000 cells per well on collagen coated clear bottom 96-well plates with black sides and cells were allowed to adhere over night before experiments. All assays are done in a buffer containing 146 mM NaCl, 5 mM KCl, 1 mM MgCl2, 1 mM CaCl2, 20 mM HEPES, 1 mg/mL glucose and 1 mg/mL BSA Fraction IV (pH 7.4). Cell cultures in the 96-well plates are loaded for 60 minutes in the above mentioned buffer containing 6 μM of the acetoxymethyl ester form of the fluorescent calcium indicator fluo-3 (Molecular Probes, Eugene, Oreg.) in 0.025% pluronic acid (a proprietary, non-ionic surfactant polyol—CAS Number 9003-11-6). […] The fluorescence signal is sampled 50 times at 1-second intervals followed by 3 samples at 5-second intervals immediately after each of the two additions. Responses are measured as the difference between the peak heights of the response to agonist, less the background fluorescence within the sample period. […]

| Structure (SMILES) | Kp [1] | IC50 (human mGluR5d) |
| --- | --- | --- |
| C[C@@H](c1noc(-c2cccc(Cl)c2)n1)N(C)c1nnc(-c2cc[n+]([O-])cc2)n1C [Example 4, N-{(1S)-1-[5-(3-chlorophenyl)-1,2,4-oxadiazol-3-yl]ethyl}-N,4-dimethyl-5-(1-oxidopyridin-4-yl)-4H-1,2,4-triazol-3-amine] | 0.01 | 81 nM |
| Cn1c(-c2ccc[n+]([O-])c2)nnc1N1CCCC[C@@H]1c1nnn(-c2cccc(Cl)c2)n1 [Example 5, 3-(5-{(2R)-2-[2-(3-chlorophenyl)-2H-tetrazol-5-yl]piperidin-1-yl}-4-methyl-4H-1,2,4-triazol-3-yl)pyridine 1-oxide] | < 0.015 | 49 nM |
| Cn1c(-c2ccc[n+]([O-])c2)nnc1N1CCC[C@@H]1c1nnn(-c2cccc(Cl)c2)n1 [Example 6, 3-(5-{(2R)-2-[2-(3-chlorophenyl)-2H-tetrazol-5-yl]pyrrolidin-1-yl}-4-methyl-4H-1,2,4-triazol-3-yl)pyridine 1-oxide] | < 0.01 | 108 nM |
